Values of other authors in patent publication US11344598B2, “Herbal nanoformulations for treating psoriasis and other skin conditions” (Sirbal Ltd., priority 2016, dated 2022).

Details: in words

Which solubility in water does the source give for `CCC(=O)O[C@]1(C(=O)CCl)[C@@H](C)C[C@H]2[C@@H]3CCC4=CC(=O)C=C[C@]4(C)[C@@]3(F)[C@@H](O)C[C@@]21C` [Clobetasol propionate, clobetasol propionate] here?
The solubility in water was “insoluble in water”.
